Tests used:
in vivo = conditions: mouse, in vivo, po
Protocol: (§1) The muscle relaxant activities of the test compounds, 1-amino-5-bromouracil(ABU), 1-amino--5-chlorouracil (ACU) and diazepam (DZP), were determined in accordance with the method of L. L. Coughenour et al. [see Pharmacol. Biochem. & Behav., 6, 351-353 (1977)].
(§2) Male ICR mice were placed on a 13 cm×13 cm No. 4 wire screen, and the screen was then rotated by 180 degrees. Those mice which were able to return to the screen within one minute were referred to "successful" mice. The suspension of each test compound prepared in the same manner as in Test Example 1 was administered orally to the mice. The mice were then subjected to the above test. The dose of the test compound at which 50% of the mice successfully returned to the screen was determined as ED50 (A).
(§3) Furthermore, the validity of each of the test compounds as an anxiolytic drug was expressed as A/B value.

male ICR mice [1] = assay: Muscle relaxant activity (rotated wire screen test); conditions: muscle relaxant ED50 / minimum effective dose for anti-conflict activity
Protocol: as §1, §2, §3

ICR mice = assay: Acute toxicity (intraperitoneal administration); format: in vivo, mouse (ICR); conditions: one week
Protocol: 1-Amino-5-bromouracil (ABU) was suspended in physiological saline containing 0.5% carboxymethyl cellulose (CMC). ABU was administered intraperitoneally to 8 ICR mice in a dose of 500 mg/kg, and their lethality was observed over a period of one week.
Further, 1-amino-5-chlorouracil (ACU) was administered intraperitoneally to 10 male ICR mice in a dose of 357 mg/kg, and their lethality was observed over a period of one week.

male ICR mice [2] = assay: Anti-conflict activity (Vogel type conflict test); format: in vivo, mouse (ICR); conditions: for number of water-drinking: 10 minutes
Protocol: The method is described below.
Male ICR mice (6 weeks old) were deprived of water for one day before the test. The mice were then individually placed in the test box, and given water ad libitum for 10 minutes. Thereafter, they were placed back in their home cages, given water ad libitum overnight, and again deprived of water for two days. The mice thus treated were used for the measurement.
ABU, the test compound, was suspended in physiological saline containing 0.5% CMC, and the suspension was administered intraperitoneally to the above mice. .On the other hand, as a positive control compound, DZP was administered in the same manner. Fifteen minutes after the administration,the mice were placed in the test box, and allowed to freely drink one count of water (one drop: approximately 40 ul ). Thereafter, a 50 V electric foot shock was given from the grid floor to the mice every time they drunk one count of water. Under such conditions, the number of water-drinking was counted over a period of 10 minutes. The number of water-drinking performed by a group of mice to which the test compound was administered was compared with that of water-drinking performed by a group of mice to which a vehicle (physiological saline containing 0.5% CMC and no test compound) was administered.
The significant difference was ascertained by the Mann-Whitney's U-test.

[3] = Acute toxicity (oral administration); conditions: mouse, in vivo, male ICR mice, Litchfield-Wilcoxon method
Protocol: The acute toxicity (LD50 value) per oral administration was determined by the following method.
The test compound (1-amino-5-bromouracil (ABU) or 1-amino-5-chlorouracil (ACU) was suspended in distilled water containing 0.5% carboxymethyl cellulose (CMC). ABU or ACU was administered orally to male ICR mice (1 group: 10 mice) in a dose of 1000-2800 mg/kg or 500-1400 mg/kg, and the LD50 values were determined according to the Litchfield-Wilcoxon method. The results are shown in Table 2.

male Wistar rats = assay: Anti-conflict activity (Geller type conflict test); format: in vivo, rat (Wistar); conditions: for number of lever pressing during the alarm periods / number of lever pressing during the safety periods: one hour, vs control; for minimal effective dose: Rattus norvegicus, oral, from results of Test Example 1, read-out: Minimum Effective Dose for Anti-Conflict Activity [B]
Protocol: The activities of the test compounds were evaluated by the Geller type conflict test which is frequently employed as a preclinical evaluation method of an anxiolytic drug [see Psychophamacologia, 1, 482-492 (1960 )]. The method is described below.
1-Amino--5--chlorouracil (ACU) , 1-amino-5-bromouracil (ABU) and 1-amino-5-fluorouracil (AFU) were used as the test compounds. These compounds were respectively suspended in distilled water containing 0 . 5% carboxymethyl cellulose (CMC) to obtain suspensions suitable for oral administration. In addition, diazepam (DZP) serving as a positive control compound was also prepared as a suspension suitable for oral administration in the same manner.
A skinner box (manufactured by OHARA & Co. , Ltd. ) used for the test was equipped with a lever, a light and a buzzer, and its floor was a grid made of stainless steel. When the lever was pressed, pellets (food) were supplied from a feeder, and, if necessary, an electric shock was given from the floor.
Male Wistar rats were deprived of food during the night to restrain an increase in the body weight, and a training of the animals was started. After the number of lever pressing performed by the rats reached the predetermined level by following a reinforcement schedule in which food pellets were supplied once every ten times of lever pressing (FR-10) , two periods, that is, a 7-minute safety period and a 3-minute alarm period were alternately incorporated in the schedule - During the alarm period, the rats were signaled by the light and buzzer, and further by an electric shock given from the floor every time they were supplied with food pellets. Those rats which were trained to press the lever 19 times or less during the alarm period were used for the measurement. Immediately after a suspension of a test compound prepared in the above-described manner was administered orally to the rats, they were placed in the skinner box, and the numbers of lever pressing were counted over a period of one hour. The numbers thus obtained were compared with those obtained by the control wherein distilled water containing 0.5% CMC and no test compound was orally administered to the rats and the number of lever pressing was counted for one hour. The significant difference was ascertained by the Wilcoxoh's signed rank test. The results are shown in FIG. 1A, FIG. 1B, FIG. 1C, FIG. 2A and FIG. 2B.
To the rats used for the above test, no drugs were administered for one week, and then they were repeatedly used for the same test.
Further, the minimum effective dose (B) for anti-conflict activity of each of the above-described test compounds was determined on the basis of the results obtained in Test Example 1.

[4] = cited from earlier work

For Nn1cc(Br)c(=O)[nH]c1=O [ABU, 1-amino-5-bromouracil], the ED50 (in vivo) was 74.1 mg/kg, the “Validity [A/B]” value (male ICR mice [1]) was 7.4 and the lethality (ICR mice; 500 mg/kg i.p., 8 ICR mice) was “no death was observed”. The “sensitivity to an electric shock” value (male ICR mice [2]; 20 mg/kg i.p.) was “no decrease in the sensitivity to an electric shock was noted”, the number of water-drinking (male ICR mice [2]; ABU 5, 10, 20 and 50 mg/kg i.p., significant only at 20 mg/kg) was “a significant increase in the number of water-drinking was noted only at the dose of 20 mg/kg” and the LD50 [3] was 1920 mg/kg. For the same compound, the “number of lever pressing during the alarm periods” value (male Wistar rats; 10 mg/kg oral) was “significantly increased”, the “number of lever pressing during the safety periods” value (male Wistar rats; 10 mg/kg oral) was “did not significantly change” and the “number of lever pressing during the alarm periods” value (male Wistar rats; 30 mg/kg oral) was “significantly increased”. For the same compound, the “number of lever pressing during the safety periods” value (male Wistar rats; 30 mg/kg oral) was “did not significantly change”, the “number of lever pressing during the alarm periods” value (male Wistar rats; 50 mg/kg oral) was “significantly increased” and the “number of lever pressing during the safety periods” value (male Wistar rats; 50 mg/kg oral) was “did not significantly change”. The minimal effective dose (male Wistar rats) was 10 mg/kg.

With Nn1cc(Cl)c(=O)[nH]c1=O [ACU, 1-Amino--5--chlorouracil] the ED50 (in vivo) was 46 mg/kg, the “Validity [A/B]” value (male ICR mice [1]) was 2.3 and the lethality (ICR mice; 357 mg/kg i.p., 10 male ICR mice) was “no death was observed”. The LD50 [3] was 971 mg/kg, the “number of lever pressing during the alarm periods” value (male Wistar rats; 20 mg/kg oral) was “significantly increased” and the “number of lever pressing during the safety periods” value (male Wistar rats; 20 mg/kg oral) was “did not significantly change”. The “number of lever pressing during the alarm periods” value (male Wistar rats; 30 mg/kg oral) was “significantly increased”, the “number of lever pressing during the safety periods” value (male Wistar rats; 30 mg/kg oral) was “did not significantly change” and the minimal effective dose (male Wistar rats) was 20 mg/kg.

In the case of Nn1cc(F)c(=O)[nH]c1=O [AFU, 1-amino-5-fluorouracil], the “number of lever pressing during the alarm periods” value (male Wistar rats; 20 mg/kg oral) is reported as “significantly increased” and the “number of lever pressing during the safety periods” value (male Wistar rats; 20 mg/kg oral) is reported as “did not significantly change”.

For CN1C(=O)CN=C(c2ccccc2)c2cc(Cl)ccc21 [DZP, diazepam, reference compound], the ED50 (in vivo) was 8.8 mg/kg, the “Validity [A/B]” value (male ICR mice [1]) was 1.8 and the “behaviors of the mice when receiving an electric shock” value (male ICR mice [2]; 2 mg/kg i.p.) was “lack of both vocalization and escape behavior”. The “sensitivity of the mice to an electric shock” value (male ICR mice [2]; 2 mg/kg i.p.) was “decreased”, the number of water-drinking (male ICR mice [2]; 2 mg/kg i.p.) was “significantly increased” and the “number of lever pressing during the alarm periods” value (male Wistar rats; 5 mg/kg oral) was “significantly increased”. The “number of lever pressing during the alarm periods” value (male Wistar rats; 10 mg/kg oral) was “significantly increased”, the “number of lever pressing during the alarm periods” value (male Wistar rats; 20 mg/kg oral) was “significantly increased” and the “number of lever pressing during the safety periods” value (male Wistar rats; 20 mg/kg oral) was “significantly decreased”. The “number of lever pressing during the safety periods” value (male Wistar rats; 50 mg/kg oral) was “significantly decreased” and the minimal effective dose (male Wistar rats) was 5 mg/kg.

For CCC(C)n1c(=O)[nH]c(C)c(Br)c1=O (stereo not shown) [bromacil], the “minimum effective dose for single administration” value ([4]; oral, single administration) is given as 100 mg/kg and the anxiolytic activity ([4]; orally administered) is given as “low anxiolytic activity”.
